US20020041889A1, “ENHANCING AGENT FOR DEGRADATION OF DESMOSOMES OR STRATUM CORNEUM DESQUAMATION” (priority 1997, published 2002)

Tested on: desmoglein in a stratum corneum sheet (decomposition by trypsin-like and chymotrypsin-like enzymes)
Experiment: Percentage of residual desmoglein in stratum corneum sheets (SDS-PAGE / immunoblot with anti-desmoglein antibody)
Assay type: biochemical, human
Conditions: stratum corneum sheet (2 mg) from healthy subjects coated with 5 μl of a 5% aqueous solution of test compound; moisture content not greater than 30%; 37° C. for one week; average of three measurements; control = 100.00
Experimental: Method of Evaluation (the percentage of residual desmoglein in stratum corneum sheets) This method of evaluation serves to evaluate the degree of decomposition of desmoglein in a stratum corneum sheet by trypsin-like and chymotrypsin-like enzymes, i.e., the degree of stratum corneum desquamation. […] Stratum corneum sheets were peeled from healthy subjects and soaked in an antiseptic and fungicidal solution (containing 60 μl/ml of kanamycin and 0.5% NaN3) for 30 seconds. Both sides of a stratum corneum sheet weighing 2 mg were coated with 5 μl of a 5% aqueous solution containing each of the test compounds shown in Table I below. A stratum corneum sheet coated with an aqueous solution containing no test compound was regarded as a control. These stratum corneum sheets were subjected to the following procedure. The stratum corneum sheets prepared in the above-described manner were placed under such conditions that the stratum corneum would have a moisture content of not greater than 30% at which the degradation of desmosomes was insufficient, and allowed to stand at 37° C. for one week. Thereafter, using 0.5 ml of a 0.1 M Tris buffer (pH 9) containing 9 M urea, 2% SDS and 1% mercaptoethanol, each of the stratum corneum sheets was extracted at 37° C. for 15 hours. Then, 0.7 ml of a sample buffer for SDS-PAGE (a two-fold concentrated Laemmli solution) was added to the resulting extract and heated for 15 minutes. 10 μl of this solution was taken and subjected to electrophoresis in a gel having a concentration of 7.5%. After electrophoresis, the proteins were transferred to a PVDF membrane and immunologically stained with an anti-desmoglein antibody and alkaline phosphatase-labelled secondary (anti-mouse lg) antibody. Then, the labelled protein was visualized with NBT/BCIP substrate. Thus, the amount of the desired protein was determined. Then, the above evaluation process was repeated except that the above-mentioned 5% aqueous solution of each of the test compounds was replaced with an aqueous solution which had been adjusted to contain 0.1% of L-alanine and 2.9% of N,N,N-trimethylglycine.

Row | Compound | Percentage of residual desmoglein
1 | C[N+](C)(C)CC(=O)[O-] [N,N,N-Trimethylglycine] | 86.08%
2 | O=C(O)[C@@H]1CC(O)CN1 (stereo partly drawn) [4-Hydroxy-L-proline] | 83.04%
3 | NC(CO)C(=O)O (racemic) [DL-Serine] | 69.44%
4 | NCC(=O)O [Glycine] | 84.13%
5 | C[C@@H](O)[C@H](N)C(=O)O [L-Threonine] | 90.91%
6 | N[C@@H](CO)C(=O)O [L-Serine] | 58.41%
7 | CCCCCCCCCCCC(=O)NCC(=O)[O-].[K+] [N-Dodecanoylglycine potassium salt] | 78.58%
8 | CC(N)C(=O)O (racemic) [DL-Alanine] | 54.55%
9 | C[C@@H](O)[C@H](N)C(=O)O (racemic) [DL-Threonine] | 97.50%
